This note sets out measurements from patent US10336735B2, “Small molecule inhibitors of fibrosis” (THE CALIFORNIA INSTITUTE FOR BIOMEDICAL RESEARCH, priority 2014, dated 2019).

In the first test the test system is primary human lung fibroblasts and primary rodent HSCs. Nature of the test: High content imaging assay (α-SMA staining, cell morphology) of fibroblast to myofibroblast transdifferentiation, confirmed by Western blot and RT-PCR. The settings on record: Homo sapiens, Fibroblast; imaging and western based activity. The text has this: High content imaging assays have been established, using primary human lung fibroblasts and primary rodent HSCs, that enable the identification of small molecules that either inhibit myofibroblast formation/activation or induce the reversion of activated myofibroblasts to a quiescent fibroblast state. Conditions, involving serum starvation and subsequent TGF-β treatment, have been identified that facilitate robust in vitro transdifferentiation in a miniaturized (384 well plate) format that is amenable to high throughput small molecule screening. The inhibition assay is based on α-SMA immunofluorescent staining and cell morphology changes associated with fibroblast to myofibroblast transdifferentiation, Using the selective ALK-5 TGF-β1 receptor inhibitor ([…]) as a positive control, the inhibition assay has been used to initiate a screen of a collection of ˜100,000 small molecules that consists of bioactive small molecules and a diversity set that has been assembled based on 2D and 3D structural diversity and inherent “drug-likeness” properties. Preliminary screening led to the identification of multiple previously identified anti-fibrotic molecules.
A high content imaging assay, based on α-SMA staining and cell morphological changes associated with fibroblast to myofibroblast transdifferentiation, was established using primary human lung fibroblasts and primary rodent HSCs. Conditions, involving serum starvation and subsequent TGF-β treatment, were identified that facilitate robust in vitro transdifferentiation in a miniaturized (384 well plate) format that is amenable to high throughput small molecule screening. A selective ALK-5 TGF-β1 receptor inhibitor (SB-431542) was used as a positive control. […] This assay was used to evaluate compounds of Formula (I), (Ia), (II), (IIa), (III), (IIIa), (IV), (IVa), (IVb), (V), (Va), (VI), (VIa), (VIb), (VIc), (VII), (VIIa), (VIII), (VIIIa), (IX), (IXa), (X), or (Xa) generated from medicinal chemistry efforts.
The activity of Itraconazole and compounds of Formula (I), (Ia), (II), (IIa), (III), (IIIa), (IV), (IVa), (IVb), (V), (Va), (VI), (VIa), (VIb), (VIc), (VII), (VIIa), (VIII), (VIIIa), (IX), (IXa), (X), or (Xa) was confirmed by analyzing changes in gene expression of multiple genes associated with fibroblast to myofibroblast transdifferentiation using biochemical methods (i.e., Western blot and RT-PCR). These 4-day assays were used to evaluate sets of 6 compounds at a time in 4-point dose response fashion.
The EC50 for (imaging and western based) activity is graded as: +++=<500 nM; ++=500 nM to 5 μM; +=5 to 30 μM); −=>30 μM; NT=Not Tested.
In general terms: In western blotting, separated proteins are transferred to a membrane and probed.
As usually defined, the EC50 is the concentration that produces a half-maximal response. Turning to `CCC(C)n1ncn(-c2ccc(N3CCN(c4ccc(OC[C@@H]5CO[C@@](Cn6nccn6)(c6cc(Cl)ccc6C)O5)cc4)CC3)cc2)c1=O` (stereo partly drawn) [Compound 34], the EC50 was in the range of 0.5 to 5 µM.
For `CCC(CC)n1ncn(-c2ccc(N3CCN(c4ccc(OC[C@H]5CO[C@](Cn6nccn6)(c6ccccc6)O5)cc4)CC3)cc2)c1=O` [Compound 160], the EC50 is under 0.5 µM.
`CCCC(C)n1ncn(-c2ccc(N3CCN(c4ccc(OC[C@@H]5CO[C@@](Cn6nccn6)(c6ccc(C#N)cc6C)O5)cc4)CC3)cc2)c1=O` (stereo partly drawn) [Compound 23] gave an EC50 of 0.5 to 5 µM.
Same read-out and setting: the value for `CCC(C)n1ncn(-c2ccc(N3CCN(c4ccccc4OC[C@@H]4CO[C@@](Cn5nccn5)(c5ccc(Cl)cc5Cl)O4)CC3)cc2)c1=O` (stereo partly drawn) [Compound 79] was over 30 µM.
Compound `CCC(C)n1ncn(-c2ccc(N3CCN(c4ccc(OC[C@@H]5CO[C@@](Cn6ncc7ccccc76)(c6ccc(Cl)cc6Cl)O5)cc4)CC3)cc2)c1=O` (stereo partly drawn) [Compound 49] showed an EC50 of 0.5 to 5 µM.
`CCC(C)n1ncn(-c2ccc(N3CCN(c4ccc(OC[C@@H]5CO[C@@](Cn6nccn6)(c6ccc(Cl)cc6Cl)O5)cc4)CC3)cc2F)c1=O` (stereo partly drawn) [Compound 70] displayed an EC50 of 0.5 to 5 µM.
In turn, `CCC(CC)n1ncn(-c2ccc(N3CCN(c4ccc(OC[C@@H]5CO[C@@](Cn6nccn6)(c6ccc(Cl)cc6Cl)O5)cc4C#N)CC3)cc2)c1=O` [Compound 152] yielded an EC50 of 5 to 30 µM.
`CCC(C)n1ncn(-c2ccc(N3CCN(c4ccc(OC[C@@H]5CO[C@@](Cn6nccn6)(c6ccc(C#N)cc6Cl)O5)cc4)CC3)cc2)c1=O` (stereo partly drawn) [Compound 26]: the EC50 is 5 to 30 µM.
The compound `CCC(C)n1ncn(-c2ccc(N3CCN(c4ccc(OC[C@@H]5CO[C@](Cc6ccnnc6)(c6ccc(Cl)c(Cl)c6)O5)cc4)CC3)cc2)c1=O` (stereo partly drawn) [Compound 106] gave an EC50 of under 0.5 µM.
Same read-out and setting: the same measure for `CCC(C)n1ncn(-c2ccc(N3CCN(c4ccc(OC[C@@H]5CO[C@](Cc6ccnnc6)(c6cc(Cl)cc(Cl)c6)O5)cc4)CC3)cc2)c1=O` (stereo partly drawn) [Compound 122]: under 0.5 µM.
Same read-out and setting: the value for `O=c1n(-c2ccc(N3CCN(c4ccc(OC[C@H]5CO[C@](Cn6nccn6)(c6ccc(Cl)cc6Cl)O5)cc4F)CC3)cc2)cnn1CC1CCCC1` [Compound 163] was under 0.5 µM; that for `CCC(C)n1ncn(-c2ccc(N3CCN(c4ccc(OC[C@@H]5CO[C@@](Cn6cccn6)(c6cccc(C(F)(F)F)c6)O5)cc4)CC3)cc2)c1=O` (stereo partly drawn) [Compound 92] was under 0.5 µM; that for `CCC(CC)n1ncn(-c2ccc(N3CCN(c4ccc(OC[C@@H]5CO[C@@](Cn6nccn6)(c6ccc(Cl)cc6Cl)O5)cc4)CC3)cc2)c1=O` [Compound 13] was 0.5 to 5 µM.
As to `CCC(C)n1ncn(-c2ccc(N3CCN(c4ccc(OC[C@@H]5CO[C@@](Cn6cccn6)(c6cc(Cl)cc(Cl)c6)O5)cc4)CC3)cc2)c1=O` (stereo partly drawn) [Compound 80], the EC50 was in the range of 0.5 to 5 µM.
With `CCC(C)n1ncn(-c2ccc(N3CCN(c4ccc(OC[C@@H]5CO[C@@](Cn6nccn6)(c6cc(C#N)ccc6C)O5)cc4)CC3)cc2)c1=O` (stereo partly drawn) [Compound 28], the EC50 lay within 5 to 30 µM.
The same measure, in the same setting: the same measure for `CCC(CC)n1ncn(-c2ccc(N3CCN(c4ccc(OC[C@@H]5CO[C@@](Cn6nccn6)(c6ccccc6)O5)cc4)CC3)cc2)c1=O` [Compound 161]: under 0.5 µM; for `CCC(C)n1ncn(-c2ccc(N3CCN(c4ccc(OC[C@@H]5CO[C@](Cc6ccnnc6)(c6cccc(C(F)(F)F)c6)O5)cc4)CC3)cc2)c1=O` (stereo partly drawn) [Compound 113]: 0.5 to 5 µM; for `CCC(C)n1ncn(-c2ccc(N3CCN(c4cc(C)c(OC[C@@H]5CO[C@@](Cn6nccn6)(c6ccccc6)O5)c(C)c4)CC3)cc2)c1=O` (stereo partly drawn) [Compound 61]: 5 to 30 µM.
The compound `CCC(C)n1ncn(-c2ccc(N3CCN(c4ccc(OC[C@@H]5CO[C@@](Cn6cccn6)(c6ccccc6C)O5)cc4)CC3)cc2)c1=O` (stereo partly drawn) [Compound 95] displayed an EC50 of under 0.5 µM.
`CCC(C)n1ncn(-c2ccc(N3CCN(c4ccc(OC[C@@H]5CO[C@@](Cc6ccnnc6)(c6cccc(Cl)c6)O5)cc4)CC3)cc2)c1=O` (stereo partly drawn) [Compound 124]: the EC50 is under 0.5 µM.
Regarding `CC(C)N1CCN(c2ccc(N3CCN(c4ccc(OC[C@H]5OC[C@](Cn6nccn6)(c6ccc(F)cc6F)O5)cc4)CC3)cc2)C1=O` (racemic) [Compound 203, cis (±)-1-(4-(4-(4-((4-((2H-1,2,3-triazol-2-yl)methyl)-4-(2,4-difluorophenyl)-1,3-dioxolan-2-yl)methoxy)phenyl)piperazin-1-yl)phenyl)-3-isopropylimidazolidin-2-one], the EC50 is over 30 µM.
Compound `O=c1n(-c2ccc(N3CCN(c4ccc(OC[C@H]5CO[C@](Cn6nccn6)(c6ccccc6)C5)cc4F)CC3)cc2)cnn1CC1CCCC1` [Compound 145] returned an EC50 of 5 to 30 µM.
The compound `CCC(C)n1ncn(-c2ccc(N3CCN(c4ccc(OC[C@@H]5CO[C@@](Cn6cccn6)(c6ccc(C#N)cc6)O5)cc4)CC3)cc2)c1=O` (stereo partly drawn) [Compound 89] returned an EC50 of 0.5 to 5 µM.
As for `CCC(C)n1ncn(-c2ccc(N3CCN(c4ccc(OC[C@@H]5CO[C@@](Cn6nccn6)(c6ccc(CN)cc6)O5)cc4)CC3)cc2)c1=O` (stereo partly drawn) [Compound 37], the EC50 lay in the range of 0.5 to 5 µM.
The compound `CCC(C)n1ncn(-c2ccc(N3CCN(c4ccc(OC[C@@H]5CO[C@](Cc6ccnnc6)(c6ccc(C(F)(F)F)cc6)O5)cc4)CC3)cc2)c1=O` (stereo partly drawn) [Compound 114] registered an EC50 of under 0.5 µM.
Still for that read-out and setting: the same measure for `CC(=O)C(C)n1cnn(-c2ccc(N3CCN(c4ccc(OC[C@@H]5CO[C@@](Cn6nccn6)(c6ccc(Cl)cc6Cl)O5)cc4)CC3)cc2)c1=O` (stereo partly drawn) [Compound 10]: 0.5 to 5 µM.
Turning to `CCC(C)n1ncn(-c2ccc(-c3ccc(OC[C@@H]4CO[C@@](Cn5nccn5)(c5ccc(Cl)cc5Cl)O4)cc3)cc2)c1=O` (stereo partly drawn) [Compound 8], the EC50 was over 30 µM.
Compound `CCC(CC)n1ncn(-c2ccc(N3CCN(c4ccc(OC[C@H]5CO[C@](Cn6cccn6)(c6ccc(C#N)cc6C)O5)cc4)CC3)cc2)c1=O` [Compound 177] returned an EC50 of 0.5 to 5 µM.
Still for that read-out and setting: the value for `CCC(C)n1ncn(-c2ccc(N3CCN(c4ccc(OC[C@@H]5CO[C@](Cc6ccnnc6)(c6ccc(C#N)cc6)O5)cc4)CC3)cc2)c1=O` (stereo partly drawn) [Compound 111] was 5 to 30 µM.
For the compound `CC[C@H](C)n1ncn(-c2ccc(N3CCN(c4ccc(OC[C@@H]5CO[C@@](Cn6nccn6)(c6ccccc6)O5)cc4)CC3)cc2)c1=O` [Compound 180, 4-(4-(4-(4-(((2S,4R)-2-((2H-1,2,3-triazol-2-yl)methyl)-2-phenyl-1,3-dioxolan-4-yl)methoxy)phenyl)piperazin-1-yl)phenyl)-(S)-1-sec-butyl-1H-1,2,4-triazol-5(4H)-one], the EC50 was under 0.5 µM.
For `CCC(C)n1ncn(-c2ccc(N3CCN(c4ccc(OC[C@@H]5CO[C@@](Cn6nccn6)(c6ccccc6)O5)cc4CN)CC3)cc2)c1=O` (stereo partly drawn) [Compound 67], the EC50 fell in the range of 0.5 to 5 µM.
`CCC(C)n1ncn(-c2ccc(N3CCN(c4ccc(OC[C@@H]5CO[C@@](Cn6cccn6)(c6ccc(OC(F)(F)F)cc6)O5)cc4)CC3)cc2)c1=O` (stereo partly drawn) [Compound 94]: the EC50 is under 0.5 µM.
Compound `O=c1n(-c2ccc(N3CCN(c4ccc(OC[C@@H]5CO[C@@](Cn6nccn6)(c6ccccc6)O5)cc4)CC3)cc2)cnn1CC1CCCC1` [Compound 20] had an EC50 of 5 to 30 µM.
`CCC(C)n1ncn(-c2ccc(N3CCN(c4ccc(OC[C@@H]5CO[C@](CN6CCOCC6)(c6ccc(Cl)cc6Cl)O5)cc4)CC3)cc2)c1=O` (stereo partly drawn) [Compound 45]: the EC50 was over 30 µM.
On the same count and under the same terms, the value for `CCC(C)n1ncn(-c2ccc(N3CCN(c4ccc(OC[C@@H]5CO[C@](Cn6nccn6)(c6ccccc6)O5)cc4)CC3)cc2)c1=O` (stereo partly drawn) [Compound 186] was 5 to 30 µM.
For the compound `CCC(C)n1ncn(-c2ccc(N3CCN(c4cc(F)c(OC[C@@H]5CO[C@@](Cn6nccn6)(c6ccccc6)O5)c(F)c4)CC3)cc2)c1=O` (stereo partly drawn) [Compound 62], the EC50 fell in the range of 5 to 30 µM.
As for `CCC(C)n1ncn(-c2ccc(N3CCN(c4ccc(OC[C@@H]5CO[C@@](Cc6ccnnc6)(c6ccccc6OC)O5)cc4)CC3)cc2)c1=O` (stereo partly drawn) [Compound 127], the EC50 was under 0.5 µM.
Compound `CCC(C)n1ncn(-c2ccc(N3CCN(c4ccc(OC[C@@H]5CO[C@@](Cn6cccn6)(c6ccc(S(N)(=O)=O)cc6)O5)cc4)CC3)cc2)c1=O` (stereo partly drawn) [Compound 99] showed an EC50 of 5 to 30 µM.

The same test, now with this note: imaging and western based activity.
In the case of “cis (±)-4-(4-(4-(4-((4-((2H-1,2,3-triazol-2-yl)methyl)-4-(2,4-difluorophenyl)-1,3-dioxolan-2-yl)methoxy)phenyl)piperazin-1-yl)phenyl)-1-sec-butyl-1H-1,2,4-triazol-5(4H)-one [Compound 199]”, the EC50 is under 0.5 µM.
